# Reference: patent US4371523A, “Reducing the aggregation of insulin in solution” (The Regents of the University of California, priority 1980, dated 1983)
# Entries after “also recorded” stand apart in the source; their conditions may differ.
# Experiments:
# [1] = Controlled shaking of insulin solutions in 2-week minipumps equipped with small diameter catheters; format: physicochemical; conditions: shaken 8 days at 37°
# Method: Minipumps (Alzet Osmotic Minipump No. 2002, Alza Corporation, Palo Alto, Calif.) that release their contents ([…]) at a constant rate ([…]) over a minimum of 14 days were filled with insulin or amino acid-insulin solutions. The minipumps were weighed before and after filling to determine the initial inner fluid volume. A 5 cm vinyl catheter (Iv. soft medical polyvinyl tubing; i.D.=0.023 inch; Bolab Inc. Co., Derry, N.H.) was attached to the tubes' exterior beyond their flanges.
# Acid and neutral insulin solutions were prepared with and without glutamic or aspartic acids as described in Example I except insulin concentrations were 120 U/ml (approximately 5 mg/ml). Glutamic and aspartic acids were added to a concentration of 7 mg/ml. The final pH's of the amino acid insulin solutions were 3.3-3.5.
# Pumps with attached catheters were placed in a 5 ml plastic vial containing a cotton wad and sufficient saline to immerse and activate the pump. The catheter passed through a 0.5 ml air space at the top of the fluid in the tube, the terminal end being submerged in the saline. The tubes were sealed with a plastic cap covered with parafilm. They were shaken at 37° in a metabolic shaking incubator (Dubnoff E.C.A.) at 80-100 r.p.m. for periods up to 8 days. Pumps were removed from the tubes on the 8th day after shaking; catheters were examined for precipitates by eye and residual contents were removed and centrifuged in microtubes to evaluate the precipitate.
# [2] = biological target: T1, single component neutral pork zinc insulin (Sus scrofa, UniProt P01315); test: Controlled shaking of zinc insulin solutions in test tubes, optical density at 600 nm; format: physicochemical; conditions: for Optical Density ± 1 × SE: zinc insulin 50 U/ml, OD at 600 nm
# T1 construct: single component, neutral, pork, zinc-insulin (U.500 regular Iletin II., Eli Lilly & Company); purchased Eli Lilly & Company U.500 regular Iletin II
# T1 sequence (P01315 25-54 limits assumed): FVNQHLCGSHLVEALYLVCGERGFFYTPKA
# T1 sequence (P01315 88-108 limits assumed): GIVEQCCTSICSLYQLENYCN
# Method: In vitro testing of single component neutral pork zinc insulin was undertaken with a number of added agents. Solutions at about neutral pH and at acid pH were tested. In addition, some testing was also undertaken with Na insulin.
# The tests were conducted using plastic tybes (5 ml test tubes, Sarstedt, sealed by plastic caps covered with paraffin) each containing 2 ml of the insulin solutions noted below. The tubes were continuously agitated in a metabolic shaking incubator (Dubnoff E.C.A. Co.) at 60 to 80 r.p.m. and 37° C. for periods up to sixteen days.
# The zinc insulin solutions were prepared by appropriate dilutions of highly concentrated (500 U/ml) single component, neutral, pork, zinc-insulin (U.500 regular Iletin II., Eli Lilly & Company). The unbuffered diluting fluid contained glycerin, 16 mg/ml, and phenol, 2 mg/ml of distilled water (Eli Lilly & Company). […] Final insulin concentration in all solutions was 50 U/ml (2 mg/ml).
# Insulin solutions with amino acid added were prepared by addition of the dry amino acids (Sigma Company) to the neutral zinc or sodium insulin solutions. Final concentration of the amino acid additives was 7 mg per ml of insulin solution. pH was adjusted, when necessary, to 7.5 for neutral insulin mixtures and to 3.3-3.5 for acid insulin mixtures.
# Several non-amino carboxylic acids, i.e., lactic acid, acetic acid, and citric acid, were added under the same conditions of concentration and pH as described for the amino acids.
# The various insulin solutions, both as made up without additives and with additives, were shaken as noted above for up to sixteen days, at which time the solutions were examined with an optical densitometer at a wave length 600 nm. The optical density (OD) of each solution was an indication of the amount of aggregation present after the shaking period. The higher the optical density, the greater the aggregation in that solution.
# pork sodium-insulin = biological target: T2, pork sodium-insulin (Sus scrofa, UniProt P01315); test: Controlled shaking of Na insulin solutions in test tubes, optical density at 600 nm; format: physicochemical; conditions: for Optical Density ± 1 × SE: Na insulin 50 U/ml, OD at 600 nm
# T2 construct: pork sodium-insulin crystals (U.1000 neutral sodium insulin special pork obtained from Eli Lilly & Company); purchased Eli Lilly & Company U.1000 neutral sodium insulin special pork
# T2 sequence (P01315 25-54 limits assumed): as the sequence (P01315 25-54 limits assumed) above
# Method: In vitro testing of single component neutral pork zinc insulin was undertaken with a number of added agents. Solutions at about neutral pH and at acid pH were tested. In addition, some testing was also undertaken with Na insulin. The tests were conducted using plastic tybes (5 ml test tubes, Sarstedt, sealed by plastic caps covered with paraffin) each containing 2 ml of the insulin solutions noted below. The tubes were continuously agitated in a metabolic shaking incubator (Dubnoff E.C.A. Co.) at 60 to 80 r.p.m. and 37° C. for periods up to sixteen days. The sodium insulin solutions were made by dissolving pork sodium-insulin crystals (U.1000 neutral sodium insulin special pork obtained from Eli Lilly & Company) in the same diluting fluid as utilized with the zinc insulin. The solutions were adjusted to neutral or acid pH as indicated above. Final insulin concentration in all solutions was 2 mg/ml (50 U/ml). Insulin solutions with amino acid added were prepared by addition of the dry amino acids (Sigma Company) to the neutral zinc or sodium insulin solutions. Final concentration of the amino acid additives was 7 mg per ml of insulin solution. pH was adjusted, when necessary, to 7.5 for neutral insulin mixtures and to 3.3-3.5 for acid insulin mixtures. The various insulin solutions, both as made up without additives and with additives, were shaken as noted above for up to sixteen days, at which time the solutions were examined with an optical densitometer at a wave length 600 nm. The optical density (OD) of each solution was an indication of the amount of aggregation present after the shaking period. The higher the optical density, the greater the aggregation in that solution.
# insulin = conditions: supplemental material added to insulin solution; cited from earlier work
# [3] = pH 7.4, shaken 16 days at 37° C., higher OD = greater aggregation
# [4] = pH 3.3-3.5, shaken 16 days at 37° C.
compound,measurement,setting,value
"Neutral Single Component Zinc Insulin: single component, neutral, pork, zinc-insulin (U.500 regular Iletin II, Eli Lilly & Company), diluted, no agent added",Number of Pumps with Aggregates in Catheter,"[1]; pH 3.3, 120 U/ml, of 6 pumps",4
same,Number of Pumps with Precipitates,"[1]; pH 3.3, 120 U/ml, of 6 pumps",0
same,Number of Pumps with Aggregates in Catheter,"[1]; pH 7.4, 120 U/ml, of 3 pumps",3
same,Number of Pumps with Precipitates,"[1]; pH 7.4, 120 U/ml, of 3 pumps",3
same,Time at which aggregates appeared,"[2]; acidified (pH 2.9-3.3), unbuffered",by the fourth day
same,Aggregation of acidified unbuffered insulin solution (in words),"[2]; pH 2.9-3.3, unbuffered, through day 16",the aggregation was as great through day 16 as unacidified solutions
same,Optical Density ± 1 × SE,"[2]; pH 2.9-3.3, shaken 16 days at 37° C.",0.181 ± 0.03
same,Optical Density ± 1 × SE,[2]; [3],0.603 ± 0.08
N[C@@H](CCC(=O)O)C(=O)O [Glutamic Acid],Optical Density ± 1 × SE,"pork sodium-insulin; pH 3.5, shaken at 37° C.",0.13 ± 0.03
same,Protective effect against insulin aggregation (in words),"[2]; agent added to insulin solution at acid pH 3.3-3.5, listed as Glutamic acid",prevented the development of any appreciable aggregation throughout the entire experiment
same,Protective effect against insulin aggregation (in words),"[2]; agent added to insulin solution at acid pH 3.3-3.5, listed as glutamic acid",particularly effective in protecting insulin solutions from aggregation
same,Protective effect against insulin aggregation (in words),"[2]; agent added to insulin solution at neutral pH (about pH 7, pH 7.4), listed as Glutamic acid",do not offer any effective protection
same,Protective effect against insulin aggregation (in words),"[2]; agent added to insulin solution at neutral pH (about pH 7, pH 7.4), listed as glutamic acid",the protective effect of the agents are no longer apparent
same,Optical Density ± 1 × SE,[2]; [4],0.123 ± 0.02
same,Optical Density ± 1 × SE,[2]; [3],0.717 ± 0.266
N[C@@H](CC(=O)O)C(=O)O [Aspartic Acid],Optical Density ± 1 × SE,"pork sodium-insulin; pH 3.5, shaken at 37° C.",0.10 ± 0.01
same,Protective effect on Na insulin solutions (in words),pork sodium-insulin; acid pH,some protective effect
same,Protective effect against insulin aggregation (in words),"[2]; agent added to insulin solution at acid pH 3.3-3.5, listed as Aspartic acid",more effective than glutamic acid; also recorded: particularly effective in protecting insulin solutions from aggregation
same,Protective effect against insulin aggregation (in words),"[2]; agent added to insulin solution at acid pH 3.3-3.5, listed as aspartic acid",prevented the development of any appreciable aggregation throughout the entire experiment
same,Protective effect against insulin aggregation (in words),"[2]; agent added to insulin solution at neutral pH (about pH 7, pH 7.4)",do not offer any effective protection; also recorded: the protective effect of the agents are no longer apparent
same,Optical Density ± 1 × SE,[2]; [4],0.084 ± 0.009
same,Optical Density ± 1 × SE,[2]; [3],0.51 ± 0.078
N[C@@H](CS)C(=O)O [Cysteine],Effect in preventing the aggregation of insulin in solution over extended periods of time,insulin,do not appear to have any appreciable effect
same,Optical Density ± 1 × SE,[2]; [4],0.39 ± 0.08
same,Optical Density ± 1 × SE,[2]; [3],0.34 ± 0.13
"Na Insulin: pork sodium-insulin crystals (U.1000 neutral sodium insulin special pork, Eli Lilly & Company) in solution, no agent added",Optical Density ± 1 × SE,"pork sodium-insulin; pH 3.5, shaken at 37° C.",0.128 ± 0.02
same,Optical Density ± 1 × SE,"pork sodium-insulin; pH 7.4, shaken at 37° C.",0.18 ± 0.02
same,Aggregation of Na insulin (in words),pork sodium-insulin; pH 3.3-3.5,less than at pH 7.4 but is nevertheless appreciable
same,Aggregation of Na insulin (in words),"pork sodium-insulin; pH 7.4, by 16 days",also aggregates; also recorded: aggregation is less than that seen for neutral zinc insulin at the same pH
N[C@@H](Cc1c[nH]cn1)C(=O)O [Histidine],Effect in preventing the aggregation of insulin in solution over extended periods of time,insulin,do not appear to have any appreciable effect
same,Protective effect against insulin aggregation (in words),[2]; agent added to insulin solution at acid pH 3.3-3.5,no protective effect was noted
same,Optical Density ± 1 × SE,[2]; [3],0.245 ± 0.08
